Where two headings read alike, the source gives them in different places.
Test system: HIV-1 (IIIB) in MT-4 cells
Test: microbe, parasite or virus in culture
Format: cell-based
Conditions: Human immunodeficiency virus 1, IIIB
Experimental: Compounds were serially diluted (1:3) in DMSO on 384-well polypropylene plates and further diluted 200-fold into complete RPMI media (10% FBS, 1% P/S) using the Biotek Micro Flow and Agilent ECHO acoustic dispenser. Each plate contained up to 8 test compounds, with negative (No Drug Control) and 5 uM AZT positive controls. MT-4 cells were pre-infected with 10 uL of either RPMI (mock-infected) or a fresh 1:250 dilution of an HIV-1 (IIIB) concentrated virus stock. Infected and uninfected MT-4 cells were further diluted in complete RPMI media and added to each plate using a Micro Flow dispenser. After 5 days incubation in a humidified and temperature controlled incubator (37° C.), Cell Titer Glo (Promega) was added to the assay plates to quantify the amount of luciferase.

[1] = MT4, MT-4 cells, HIV-1, read-out: MT4 EC50

Compound `CC(C)(C)C[C@]1(c2ccc(-c3cnn(C(F)F)c3)cc2)NC(=N)N([C@H](COC(=O)N[C@@H]2CC2(F)F)c2ccc(Cl)c(-n3ncnc3C(F)F)c2)C1=O` (single isomer, unassigned) [Compound 334] has an EC50 [1] of 8.98 nM.

`C[C@@H](CC#N)C[C@]1(c2ccc(-c3cnn(C(F)F)c3)cc2)NC(=N)N([C@H](COC(=O)NC2(C(F)(F)F)CC2)c2ccc(Cl)c(-n3ncnc3C(F)F)c2)C1=O` (single isomer, unassigned) [Compound 346] was tested, and the EC50 [1] was 31.9 nM.

With `C[C@H](CC#N)C[C@]1(c2ccc(-c3cnn(C(F)F)c3)cc2)NC(=N)N([C@H](COC(=O)NC2(C(F)(F)F)CC2)c2ccc(Cl)c(-n3ncnc3C(F)F)c2)C1=O` (single isomer, unassigned) [Compound 347] the EC50 [1] was 32 nM.

In the case of `COc1ccc([C@@]2(CC(C)(C)C)NC(=N)N([C@H](COC(=O)N(C)C)c3ccc(Cl)c(-c4ncccc4C)c3)C2=O)c(F)c1` [Compound 1], the EC50 [1] is reported as 64.6 nM.

`CN(C)C(=O)OC[C@H](c1ccc(Cl)c(-c2ncc(-c3ccccc3)s2)c1)N1C(=N)N[C@@](c2cc(F)cc(F)c2)(C2CC2)C1=O` [Compound 2] gave an EC50 [1] of 3000 nM.

In the case of `CN(C)C(=O)OC[C@H](c1ccc(Cl)c(-c2ncc(N3CCOCC3)s2)c1)N1C(=N)N[C@@](c2cc(F)cc(F)c2)(C2CC2)C1=O` [Compound 3], the EC50 [1] is reported as 5710 nM.

`CN(C)C(=O)OC[C@H](c1ccc(Cl)c(-c2ncc(-c3ccccc3)o2)c1)N1C(=N)N[C@@](c2cc(F)cc(F)c2)(C2CC2)C1=O` [Compound 4] showed an EC50 [1] of 3620 nM.

`CN(C)C(=O)OC[C@H](c1ccc(Cl)c(-c2nccs2)c1)N1C(=N)N[C@@](c2cc(F)cc(F)c2)(C2CC2)C1=O` [Compound 5] gave an EC50 [1] of 5710 nM.

`CN(C)C(=O)OC[C@H](c1ccc(Cl)c(-c2nc(-c3ccccc3)cs2)c1)N1C(=N)N[C@@](c2cc(F)cc(F)c2)(C2CC2)C1=O` [Compound 6] gave an EC50 [1] of 5710 nM.

`Cc1ncoc1-c1cccc([C@@H](COC(=O)NC(C)C)N2C(=N)N[C@](CC(C)C)(c3ccccc3)C2=O)c1` [Compound 7] was tested, and the EC50 [1] was 57100 nM.

Compound `COc1ccc([C@@]2(CC(C)(C)C)NC(=N)N([C@H](COC(=O)N(C)C)c3ccc(Cl)c(-c4ccccn4)c3)C2=O)c(F)c1` [Compound 8] has an EC50 [1] of 277 nM.

`COc1ccc([C@@]2(CC(C)(C)C)NC(=N)N([C@H](COC(=O)N(C)C)c3ccc(Cl)c(-c4nccn4C)c3)C2=O)c(F)c1` [Compound 9] was tested, and the EC50 [1] was 1690 nM.

In the case of `[H]/N=C1\N[C@](CC(C)(C)C)(c2ccc(OC)cc2F)C(=O)N1[C@H](COC(=O)N(C)C)c1ccc(Cl)c(-c2ncccc2F)c1` [Compound 10], the EC50 (MT4, read-out: MT4 EC50 (nM)) is reported as 91.9 nM.

For `[H]/N=C1\N[C@](CC(C)(C)C)(c2ccc(-c3cnn(C(F)F)c3)cc2F)C(=O)N1[C@H](COC(=O)NC1CC1)c1ccc(Cl)c(-c2ncn[nH]2)c1` [Compound 11], the EC50 [1] was 35.5 nM.

Compound `[H]/N=C1\N[C@](CC(C)(C)C)(c2ccc(-c3cnn(C(F)F)c3)cc2F)C(=O)N1[C@H](COC(=O)NC1CC1)c1ccc(Cl)c(-c2ncccc2C)c1` [Compound 12] has an EC50 [1] of 22.2 nM.

For `[H]/N=C1\N[C@](CC(C)(C)C)(c2ccc(-c3cnn(C(F)F)c3)cc2F)C(=O)N1[C@H](COC(=O)NC1CC1)c1ccc(Cl)c(-c2ncccc2Cl)c1` [Compound 13], the EC50 (MT4, read-out: MT4 EC50 (nM)) was 310 nM.

`[H]/N=C1\N[C@](CC(C)(C)C)(c2ccc(-c3cnn(C(F)F)c3)cc2F)C(=O)N1[C@H](COC(=O)NC1CC1)c1ccc(Cl)c(-c2ncccn2)c1` [Compound 14] was tested, and the EC50 (MT4, read-out: MT4 EC50 (nM)) was 68.6 nM.

Work on `[H]/N=C1\N[C@](CC(C)(C)C)(c2ccc(-c3cnn(C(F)F)c3)cc2)C(=O)N1[C@H](COC(=O)NC1CC1)c1ccc(Cl)c(-c2nccc(OC)n2)c1` [Compound 15, (S)-2-(4-chloro-3-(4-methoxypyrimidin-2-yl)phenyl)-2-((R)-4-(4-(1-(difluoromethyl)-1H-pyrazol-4-yl)phenyl)-2-imino-4-neopentyl-5-oxoimidazolidin-1-yl)ethyl cyclopropylcarbamate] yielded an EC50 [1] of 230 nM.

`[H]/N=C1\N[C@](CC(C)(C)C)(c2ccc(-c3cnn(C(F)F)c3)cc2)C(=O)N1[C@H](COC(=O)NC1CC1)c1ccc(Cl)c(-c2ncc[nH]2)c1` [Compound 16] was tested, and the EC50 [1] was 11.4 nM.

Compound `Cn1ncnc1-c1cc([C@@H](COC(=O)NC2CC2)N2C(=N)N[C@](CC(C)(C)C)(c3ccc(-c4cnn(C(F)F)c4)cc3)C2=O)ccc1Cl` [Compound 18] has an EC50 [1] of 9.56 nM.

`CC(C)(C)C[C@]1(c2ccc(-c3cnn(C(F)F)c3)cc2)NC(=N)N([C@H](COC(=O)NC2CC2)c2ccc(Cl)c(-c3ncn[nH]3)c2)C1=O` [Compound 19] gave an EC50 [1] of 49.9 nM.

`CC(C)(C)C[C@]1(c2ccc(-c3cnccn3)cc2F)NC(=N)N([C@H](COC(=O)NC2CC2)c2ccc(Cl)c(-c3ncn[nH]3)c2)C1=O` [Compound 21] gave an EC50 [1] of 63.8 nM.

Compound `CC(C)(C)C[C@]1(c2ccc(-c3cnn(C(F)F)c3)cc2)NC(=N)N([C@H](COC(=O)NC2CC2)c2ccc(Cl)c(-c3nc(Cl)c(Cl)[nH]3)c2)C1=O` [Compound 23] has an EC50 [1] of 70.4 nM.

In the case of `CC(C)(C)C[C@]1(c2ccc(-c3cnn(C(F)F)c3)cc2)NC(=N)N([C@H](COC(=O)NC2CC2)c2ccc(Cl)c(-c3cc[nH]n3)c2)C1=O` [Compound 24], the EC50 [1] is reported as 68.2 nM.

For `CC(C)(C)C[C@]1(c2ccc(-c3cnn(C(F)F)c3)cc2)NC(=N)N([C@H](COC(=O)NC2(C(F)(F)F)CC2)c2ccc(Cl)c(-c3ncn[nH]3)c2)C1=O` [Compound 25], the EC50 (MT4, read-out: MT4 EC50 (nM)) was 52.7 nM.

`CC(C)(C)C[C@]1(c2ccc(-c3cnccn3)cc2)NC(=N)N([C@H](COC(=O)NC2(C(F)(F)F)CC2)c2ccc(Cl)c(-c3ncn[nH]3)c2)C1=O` [Compound 27] was tested, and the EC50 [1] was 80.4 nM.

Compound `CC(C)(C)C[C@]1(c2ccc(-c3cnccn3)cc2)NC(=N)N([C@H](COC(=O)NC2CC2)c2ccc(Cl)c(-c3ncn[nH]3)c2)C1=O` [Compound 28] has an EC50 [1] of 91.7 nM.

`[H]/N=C1\N[C@](CC(C)(C)C)(c2ccc(-c3cnn(C(F)F)c3)cc2)C(=O)N1[C@H](COC(N)=O)c1ccc(Cl)c(-c2c[nH]cn2)c1` [Compound 29] was tested, and the EC50 [1] was 228 nM.

Work on `[H]/N=C1\N[C@](CC(C)(C)C)(c2ccc(-c3cnn(C(F)F)c3)cc2)C(=O)N1[C@H](COC(=O)NC1CC1)c1ccc(Cl)c(-c2c[nH]cn2)c1` [Compound 30] yielded an EC50 [1] of 120 nM.

`CC(C)(C)C[C@]1(c2ccc(-c3cnn(C(F)F)c3)cc2)NC(=N)N([C@H](COC(=O)NC2(C)CC2)c2ccc(Cl)c(-c3ncn[nH]3)c2)C1=O` [Compound 31] gave an EC50 [1] of 51 nM.

For `CC(C)(C)C[C@]1(c2ccc(-c3cnccn3)cc2)NC(=N)N([C@H](COC(=O)NC2(C)CC2)c2ccc(Cl)c(-c3ncn[nH]3)c2)C1=O` [Compound 33], the EC50 [1] was 37.2 nM.

With `CC(C)(C)C[C@]1(c2ccc(-c3cnn(C(F)F)c3)cc2)NC(=N)N([C@H](COC(=O)NC2CC2)c2ccc(Cl)c(-c3ncnn3C(F)F)c2)C1=O` [Compound 35] the EC50 [1] was 98.1 nM.

In the case of `CC(C)(C)C[C@]1(c2ccc(-c3cnn(C(F)F)c3)cc2)NC(=N)N([C@H](COC(=O)NC2CC2)c2ccc(Cl)c(-c3cn(C(F)F)cn3)c2)C1=O` [Compound 36], the EC50 [1] is reported as 89.3 nM.

In the case of `CC(C)(C)C[C@]1(c2ccc(-c3cnn(C(F)F)c3)cc2)NC(=N)N([C@H](COC(=O)NC2CC2)c2ccc(Cl)c(-c3cncn3C(F)F)c2)C1=O` [Compound 37], the EC50 [1] is reported as 219 nM.

Compound `CC(C)(C)C[C@]1(c2ccc(-c3cnn(C(F)F)c3)cc2)NC(=N)N([C@H](COC(=O)NC2CC2)c2ccc(Cl)c(-c3ncnn3C3CC3)c2)C1=O` [Compound 38] has an EC50 [1] of 9.83 nM.

With `[H]/N=C1\N[C@](CC(C)(C)C)(c2ccc(-c3cnn(C(F)F)c3)cc2)C(=O)N1[C@H](COC(=O)NC1CC1)c1ccc(Cl)c(-c2nncs2)c1` [Compound 39] the EC50 [1] was 29.8 nM.

`Cc1nnc(-c2cc([C@@H](COC(=O)NC3CC3)N3C(=N)N[C@](CC(C)(C)C)(c4ccc(-c5cnn(C(F)F)c5)cc4)C3=O)ccc2Cl)[nH]1` [Compound 40] showed an EC50 [1] of 84.1 nM.

In the case of `Cn1cc(-c2cc([C@@H](COC(=O)NC3CC3)N3C(=N)N[C@](CC(C)(C)C)(c4ccc(-c5cnn(C(F)F)c5)cc4)C3=O)ccc2Cl)nn1` [Compound 41], the EC50 [1] is reported as 18.1 nM.

`CC(C)(C)C[C@]1(c2ccc(-c3cnn(C(F)F)c3)cc2)NC(=N)N([C@H](CO)c2ccc(Cl)c(-c3ncn[nH]3)c2)C1=O` [Compound 42] gave an EC50 [1] of 103 nM.

In the case of `CC(C)(C)C[C@]1(c2ccc(-c3cnn(C(F)F)c3)cc2)NC(=N)N([C@H](COC(=O)NC2(C)CC2)c2ccc(Cl)c(-c3ncnn3C3CC3)c2)C1=O` [Compound 43], the EC50 [1] is reported as 8.18 nM.

`[H]/N=C1\N[C@](CC(C)(C)C)(c2ccc(-c3cnn(C(F)F)c3)cc2)C(=O)N1[C@H](COC(=O)NC1CC1)c1ccc(Cl)c(-c2nnc(C3CC3)s2)c1` [Compound 44] gave an EC50 [1] of 246 nM.

With `CC(C)(C)C[C@]1(c2ccc(-c3cnn(C(F)F)c3)cc2)NC(=N)N([C@H](COC(=O)NC(C)(C)C(F)(F)F)c2ccc(Cl)c(-c3ncn[nH]3)c2)C1=O` [Compound 45] the EC50 [1] was 31.7 nM.

For `CC(C)(C)C[C@]1(c2ccc(-c3cnn(C(F)F)c3)cc2)NC(=N)N([C@H](CO)c2ccc(Cl)c(-c3ncnn3C3CC3)c2)C1=O` [Compound 46], the EC50 [1] was 37.6 nM.

For `CC(C)(C)C[C@]1(c2ccc(-c3cnn(C(F)F)c3)cc2)NC(=N)N([C@H](COC(=O)NC2(C)CC2)c2ccc(Cl)c(-c3ccccn3)c2)C1=O` [Compound 47], the EC50 [1] was 60.9 nM.

`[H]/N=C1\N[C@](CC(C)(C)C)(c2ccc(-c3cnn(C(F)F)c3)cc2)C(=O)N1[C@H](COC(=O)NC1CC1)c1ccc(Cl)c(-c2ncns2)c1` [Compound 48] showed an EC50 [1] of 80 nM.

Work on `[H]/N=C1\N[C@](CC(C)(C)C)(c2ccc(-c3cnn(C4CC4)c3)cc2)C(=O)N1[C@H](COC(=O)N1CC(F)(F)C1)c1ccc(Cl)c(-c2ccccn2)c1` [Compound 49] yielded an EC50 [1] of 68.1 nM.

Work on `CC(C)(C)C[C@]1(c2ccc(-c3ccccn3)cc2)NC(=N)N([C@H](COC(=O)NC2(C(F)(F)F)CC2)c2ccc(Cl)c(-c3ncn[nH]3)c2)C1=O` [Compound 60] yielded an EC50 [1] of 28.5 nM.
